Assay results as given in patent publication US20250270648A1, “MOLECULAR SIGNATURE FOR ASSESSING THE RESPONSIVENESS OF CANCER TO MITOCHONDRIA-TARGETED ANTIOXIDANTS” (UNIVERSITÉ CATHOLIQUE DE LOUVAIN, priority 2021, published 2025).

Key:
MDA-MB-231 cells [1] = assay: Direct cell counting, MitoQ alone; assay type: cell-based, human
Method: (§1) To probe the effects of MitoQ alone on cell numbers, MDA-MB-231, SkBr3, MDA-MB-436 or MCF10A (2,500-10,000 cells/well) cells were plated in 96-well plates and treated with increasing concentrations of MitoQ. At each time point, the number of cells per well was measured using a SpectraMax i3 spectrophotometer equipped with a MiniMax™ imaging cytometer.

MDA-MB-436 cells [2] = assay: Direct cell counting, MitoQ alone; assay type: cell-based, human; settings: increasing doses of MitoQ (0 to 500 nM)
Method: as §1

SkBr3 cells [3] = assay: Direct cell counting, MitoQ alone; assay type: cell-based, human
Method: as §1

MDA-MB-231 cells [4] = assay: Cell migration, scratch test; assay type: cell-based, human; settings: MitoQ 100 nM, 48 h
Method: (§2) A scratch test was performed on cells treated ±MitoQ for 48 h (Tamura et al.; Science, 1998; 280, 1614-1617). For each condition and each time point, pictures were taken in the same field, and the distance between the wound edges was analyzed using the Image J software (Java®). The percentage of scratch closure was calculated in respect to wounded area at 0 h.

MDA-MB-436 cells [5] = assay: Cell migration, scratch test; assay type: cell-based, human; settings: MitoQ 100 nM, 48 h
Method: as §2

SkBr3 cells [6] = assay: Cell migration, scratch test; assay type: cell-based, human; settings: MitoQ 100 nM, 48 h
Method: as §2

[7] = system: MDA-MB-231 and SkBr3 cells; assay: RNA sequencing, transcripts common to both cell lines; assay type: cell-based, human; settings: MitoQ 500 nM, 48 h
Method: MDA-MB-231 and SkBr3 cancer cells were treated ±MitoQ for 48 h. Total mRNA was then extracted using the NucleoSpin RNA kit (Macherey-Nagel®), including DNAse treatment in the intermediary steps. mRNAs were quantified using the Qubit BR dsRNA assay kit (Thermo Fisher Scientific®), and mRNA integrity was evaluated on the Agilent 2100 Bioanalyzer using the RNA 6000 nano kit (Agilent®). All samples had RNA integrity number values ≥7.5. Libraries from control and treated samples were prepared starting from 150 ng of total mRNA using the KAPA RNA HyperPrep Kit with RiboErase (HMR) kit (KAPA Biosystems®) following the manufacturer's recommendations (KR1351—v1.16). Libraries were equimolarly pooled and sequenced on a single lane of an Illumina® NovaSeq 6000 platform. All libraries were sequenced at a depth of >50 million paired-end reads (2×100 bp reads) per sample. All sequencing data were analyzed using the Automated Reproducible MOdular workflow for preprocessing and differential analysis of RNAseq data (ARMOR) pipeline. In this pipeline, reads underwent a quality check using FastQC. Quantification and quality control results were summarized in a MultiQC report before being mapped using Salmon to the transcriptome index that was built using all Ensembl cDNA sequences obtained in the Homo_sapiens.GRCh38.cdna.all.fa file. Then, estimated transcript abundances from Salmon were imported into R using the tximeta package, and analyzed for differential gene expression with edgeR. To get a robust signature, only genes with |log 2 Fold Change|>1 and P<0.01 were retained.
While EMT and sternness markers are usual suspects when testing antimetastatic strategies, it was decided to go deeper in the understanding of the molecular effects of MitoQ, and performed unbiased RNA sequencing (RNAseq) using cells treated for 48 h±MitoQ (500 nM). […] On independent samples upon the same conditions (including |log 2 Fold Change|>1 and P<0.01), RT-qPCR on the two cell lines validated all genes as potential biomarkers of human breast cancer cell response to MitoQ, to the exception of EID1, PEG10, FTH1 and NUPR1 (FIG. 12A-M and Table 7).

MDA-MB-231 cells [8] = assay: Migration towards 0.5% serum, chemotaxis chamber; assay type: cell-based, human; settings: indicated doses of cisplatin + 100 nM MitoQ
Method: (§3) Previous to migration and invasion assays, cells were pretreated with the indicated amounts of drugs for 16 h, and left to recover for 6 h in full culture medium. Migration assays were performed in a NeuroProbe® standard 48-well chemotaxis chamber according to manufacturer's instructions. Briefly, the bottom chamber was filled with DMEM containing 0.5% serum as a chemo-attractant. Fifty thousand cells were seeded in the upper chamber in the same medium but without serum ±MitoQ where indicated, and allowed to migrate overnight through an 8-μm pore-size polycarbonate membrane. A similar stimulation protocol was used for invasion assays, with the difference of using Matrigel-coated transwells (Corning®). With MCF7 cells, membranes were previously incubated for 30 min with a solution of Vitronectin 10 μg/ml (Sigma-Aldrich®, #SRP3186). Migrated/invaded cells were fixed and stained with 100 μl of a 0.23% crystal violet solution (Sigma-Aldrich®, #C0775) for 10 min before counting on a SpectraMax™ i3 spectrophotometer equipped with a MiniMax imaging cytometer, using the SoftMax Pro software. Data were normalized to vehicle-treated cells (control).

4T1 cells = assay: Migration towards 0.5% serum, chemotaxis chamber; assay type: cell-based, mouse
Method: as §3

[9] = |log 2 fold change|>1 and P<0.01

In the case of COC1=C(OC)C(=O)C(CCCCCCCCCC[P+](c2ccccc2)(c2ccccc2)c2ccccc2)=C(C)C1=O [MitoQ], the “MitoQ dose starting from which cell number is reduced” value (MDA-MB-231 cells [1]; doses 0 to 500 nM) is reported as ≥ 500 nM, the “cell numbers, dose dependence” value (MDA-MB-231 cells [1]; increasing doses of MitoQ) is reported as “Dose-dependent decreases” and the cell numbers (MDA-MB-436 cells [2]) is reported as “dose-dependently reduced”. The “MitoQ dose from which cell numbers started to decrease” value (SkBr3 cells [3]; doses 0 to 500 nM) was ≥ 250 nM, the “cell numbers, dose dependence” value (SkBr3 cells [3]; increasing doses of MitoQ) was “Dose-dependent decreases” and the migratory capability (MDA-MB-231 cells [4]) was “highly significantly reduced”. For the same compound, the cell migration (MDA-MB-436 cells [5]) was “inhibited”, the migratory capability (SkBr3 cells [6]) was “highly significantly reduced” and the “EID1 and PEG10 gene transcripts” value ([7]; RNAseq, both cell lines) was “downregulated”. The “PHGDH-1, SLC7A11, SERPINE1, FTH1, TXNRD1, PSAT1, PCK2, G6PD, ASNS, SLC6A9 and NUPR1 gene transcripts” value ([7]; RNAseq, both cell lines) was “upregulated”, the “number of commonly induced transcripts” value [7, 9] was 11 and the “number of commonly repressed transcripts” value [7, 9] was 2. For the same compound, the “breast cancer cell migration in the presence of cisplatin” value (MDA-MB-231 cells [8]) was “repressed”, the DXR-stimulated cell migration (4T1 cells; 0.1 μg/mL DXR + 100 nM MitoQ) was “inhibited” and the “breast cancer cell migration in the presence of cisplatin” value (4T1 cells; indicated doses of cisplatin + 100 nM MitoQ) was “repressed”.
